Columns and labels:
M07e cells = test: Platelet production from M07e cells (flow cytometry); type: cell-based; conditions: 10 μM, 24 h
Method: Meg-01 and M07e cells were purchased from the American Type Culture Collection (Rockville, Md.) and Dami cells were a generous gift from Dr. Patricia J. Simpson-Haidaris (University of Rochester). All cells were cultured in RPMI-1640 tissue culture medium (Invitrogen) supplemented with 5% fetal bovine serum (FBS; Invitrogen), 10 mM HEPES (N-2-hydroxyethylpiperazine-N′-2-ethanesulfonic acid; Sigma), 2 mM L-glutamine (Invitrogen), 4.5 g/L glucose (Invitrogen), and 50 μg/mL gentamicin (Invitrogen). M07e cells were also supplemented with 100 ng/mL of granulocyte monocyte-colony stimulating factor (GM-CSF, R&D Systems). All treatments were performed in normal growth media. Dimethyl sulfoxide (DMSO) was used as a vehicle (control) in the experiments described below.
Platelets were isolated from megakaryocytes by centrifugation at 150 xg for 10 min. Supernatants underwent sequential centrifugation (500 xg for 10 min and 1000×g for 10 min). The remaining platelet pellet was fixed then permeabilized with a CD61 or CD41 antibody. 7-AAD (BD Pharmingen) was added for 10 min before analyzing the cells by flow cytometry. […]

Meg-01 cells = test: Meg-01 morphology (phalloidin f-actin staining, transmission electron microscopy); type: cell-based, human; conditions: 10 μM
Method: Cells were fixed and permeabilized with 0.1% triton-100 for 1 h at room temperature (RT). Subsequently, cells were blocked with 1% bovin serum albumin (BSA) in PBS-Tween 20 (0.1%) for 1 h at RT then stained with phalloidin-Alexa Fluor 488 (Invitrogen, 1:200) at RT for 2 h. Cells were mounted and visualized using an Olympus BX51 light microscope (Olympus, Melville, N.Y.).
Cells were fixed for 4 h in 2.5% glutaraldehyde in 0.1 M sodium cacodylate buffer. Post-fixation cells were placed in 1% osmium tetroxide in phosphate buffer, dehydrated in ethanol, embedded in EPON/Araldite epoxy resin and analyzed on a Hitachi H-7100 electron microscope.

Compound: CCCCCC=CC=C1C(=O)C=C[C@@H]1CC=CCCCC(=O)O [15d-PGJ2, 15-deoxy-Δ^12,14 prostaglandin J2]
- platelet production (M07e cells): increased platelet production
- morphological changes by f-actin (phalloidin) staining (Meg-01 cells; within 1-2 h): Morphological changes, characteristic of megakaryopoiesis
- structural characteristics by transmission electron microscopy (Meg-01 cells; within 24 h): structural characteristics consistent with differentiating cells

Source: patent publication US9012439B2, “Use of electrophilic compounds for inducing platelet production or maintaining platelet function” (University of Rochester, priority 2007, dated 2015)
